{"source": "patent US20150111771A1", "about": "“Method for Identifying Agents Capable of Inducing Respiratory Sensitization and Array and Analytical Kits for Use in the Method” (SENZAGEN AB, priority 2012, published 2015)", "key": {"[1]": {"tested_on": "respiratory sensitization", "settings": "cited from earlier work"}, "[2]": {"experiment": "Max solubility of reference chemicals in cell medium", "settings": "given for non-toxic compounds insoluble at 500 μM"}, "MUTZ-3 cells [3]": {"tested_on": "MUTZ-3 cells", "experiment": "GARD transcriptional profiling of stimulated MUTZ-3 with GARD Respiratory Prediction Signature (PCA / SVM classification)", "settings": "for Transcriptional profile in PCA based on GRPS, by mechanistic subdomain: 24 h stimulation, 302 GRPS transcripts (FIG. 5B, 5C)", "description": "Cultures were maintained at 200.000 cells/ml during expansion, with a media change every 3-4 days. No differentiating steps were performed and instead, the proliferating progenitor MUTZ-3 was used for stimulations. Prior to each experiment, the cells were immunophenotyped using flow cytometry as a quality control. Cells were seeded in 6-well plates at 200.000 cells/ml. Stock solutions of each compound were prepared in either DMSO or distilled water, and were subsequently diluted so the in-well concentrations corresponded to the GARD input concentration, and in-well concentrations of DMSO were 0.1%. Cells were incubated for 24 h at 37° C. and 5% CO2. Thereafter, cells were harvested and analyzed by flow cytometry. In parallel, harvested cells were lysed in TRIzol reagent (Invitrogen) and stored at −20° C. until RNA extraction. Stimulations with chemicals were performed in three individual experiments, so that triplicates samples were obtained.\nIn short, a phenotypic control of MUTZ-3 was performed prior to chemical stimulation. Stimulated cells were harvested and RNA was isolated. A control of the maturity state of the cells was performed by flow cytometric analysis of CD86. Preparation of cDNA and hybridization, washing and scanning of the Human Gene 1.0 ST Arrays (Affymetrix, Santa Clara, Calif., USA) was performed, according to standardized protocols provided by the manufacturer (Affymetrix).\nIn short, microarray data were normalized and quality checked with the RMA algorithm, using Affymetrix Expression Console (Affymetrix). […] The biological relevance of the GRPS was explored using Ingenuity Pathways Analysis (IPA) (Ingenuity Systems, Inc. Mountain View, USA), by performing a ‘Core Analysis’. […] Biological relevance was established by exploring the Canonical Pathways associated with input molecules.\nThe data set was divided into a training set and a test set, consisting of 70% and 30%, of the chemical compounds, respectively. The division was performed randomly, while maintaining the proportions of sensitizers and non-sensitizers in each subset at the same ratio as in the complete data set. A test biomarker signature was identified in the training set, using ANOVA filtering and backward elimination, as described above.\nIn addition, the test set contained nine samples of DMSO and unstimulated controls respectively. […] Any samples included in this analysis are inappropriate to include in a test set due to the risk of over fitting."}, "[4]": {"tested_on": "CD86 expression of MUTZ-3 cells", "experiment": "CD86 expression of MUTZ-3 cells following chemical stimulation (flow cytometry)", "format": "cell-based, human", "settings": "24 h at GARD input concentration; student's t-test vs corresponding vehicle, p<0.05, n=3", "description": "FIG. 4: CD86 expression of MUTZ-3 cells following chemical stimulations. Data shown is an average of (chemical stimulations, n=3, DMSO and unstimulated cells (n=6), with error bars showing standard deviation. Statistical significance was determined by student's t-test, comparing each stimulation with its corresponding vehicle, with p<0.05 indicated by *.\nBr J Haematol 2007, 138(3):281-290). […] Thereafter, cells were harvested and analyzed by flow cytometry.\nAll cell surface staining and washing steps were performed in PBS containing 1% BSA (w/v). Cells were incubated with specific mouse mAbs for 15 min at 4° C. The following mAbs were used for flow cytometry: FITC-conjugated CD1a (DakoCytomation, Glostrup, Denmark), CD34, CD86, and HLA-DR (BD Biosciences), PE-conjugated CD14 (DakoCytomation), CD54 and CD80 (BD Biosciences). Mouse IgG1, conjugated to FITC or PE were used as isotype controls (BD Biosciences) and PI was used to assess cell viability. […]\nPrior to chemical challenge, the cells were quality controlled by measuring the cellular expression of common myeloid and dendritic cell markers using flow cytometry. […] Following chemical stimulation, the general maturity state of the cells was controlled again, as determined by the expression of the co-stimulatory marker CD86, with results presented in FIG. 4. […]"}, "MUTZ-3 cells [5]": {"tested_on": "MUTZ-3 cells", "experiment": "Cytotoxicity by propidium iodide staining, relative viability of stimulated cells (Rv90)", "format": "cell-based, human", "settings": "concentration yielding 90% relative viability", "description": "All chemicals were from Sigma-Aldrich, St. Louis, Mo., USA. Compounds were dissolved in either dimethyl sulfoxide (DMSO) or distilled water."}, "[6]": {"settings": "clinical observations in humans"}, "[7]": {"settings": "external test set, biological triplicates, mapped into PCA space of train data (FIG. 6A)"}}, "note": "Read-outs that look alike come from different tables or passages of the source.", "data": [{"smiles": "O=C=Nc1ccc(Cc2ccc(N=C=O)cc2)cc1", "note": "[Methylene diphenol diisocyanate]", "values": [{"measurement": "Classification of reference chemical as respiratory sensitizer or non-sensitizer", "setting": "[1]; [6]", "value": "respiratory sensitizers"}, {"measurement": "Max solubility", "setting": "[2]", "value": 50, "unit": "µM"}]}, {"smiles": "O=C(O)c1ccc2c(c1)C(=O)OC2=O", "note": "[Trimellitic anhydride]", "values": [{"measurement": "Classification of reference chemical as respiratory sensitizer or non-sensitizer", "setting": "[1]; [6]", "value": "respiratory sensitizers"}, {"measurement": "Max solubility", "setting": "[2]", "value": 150, "unit": "µM"}]}, {"smiles": "[Cl][Pt-2]([Cl])([Cl])([Cl])([Cl])[Cl].[NH4+].[NH4+]", "note": "[Ammonium hexachloroplatinate]", "values": [{"measurement": "Transcriptional profile in PCA based on GRPS, by mechanistic subdomain", "setting": "MUTZ-3 cells [3]", "value": "most extreme transcriptional changes"}, {"measurement": "Classification of reference chemical as respiratory sensitizer or non-sensitizer", "setting": "[1]; [6]", "value": "respiratory sensitizers"}, {"measurement": "Max solubility", "setting": "[2]", "value": 35, "unit": "µM"}]}, {"smiles": "O=C=NCCCCCCN=C=O", "note": "[Hexamethylen diisocyanate]", "values": [{"measurement": "CD86 expression following chemical stimulation", "setting": "[4]", "value": "statistically significant upregulation of CD86"}, {"measurement": "Classification of reference chemical as respiratory sensitizer or non-sensitizer", "setting": "[1]; [6]", "value": "respiratory sensitizers"}, {"measurement": "Max solubility", "setting": "[2]", "value": 100, "unit": "µM"}]}, {"smiles": "CCCCCCCCCCCCOS(=O)(=O)[O-].[Na+]", "note": "[sodium dodecyl sulphate]", "values": [{"measurement": "Position of external test set samples in PCA plot based on the GRPS", "setting": "MUTZ-3 cells [3]; [7]", "value": "correctly grouped together with non-sensitizers"}]}, {"smiles": "O=Cc1ccccc1", "note": "[benzaldehyde]", "values": [{"measurement": "Position of external test set samples in PCA plot based on the GRPS", "setting": "MUTZ-3 cells [3]; [7]", "value": "correctly grouped together with non-sensitizers"}]}, {"smiles": "O=C1OC(=O)c2ccccc21", "note": "[Phtalic Anhydride]", "values": [{"measurement": "Classification of reference chemical as respiratory sensitizer or non-sensitizer", "setting": "[1]; [6]", "value": "respiratory sensitizers"}, {"measurement": "Max solubility", "setting": "[2]", "value": 200, "unit": "µM"}]}, {"smiles": "CCOC(=O)c1ccccc1C(=O)OCC", "note": "[diethyl phtalate]", "values": [{"measurement": "Position of external test set samples in PCA plot based on the GRPS", "setting": "MUTZ-3 cells [3]; [7]", "value": "correctly grouped together with non-sensitizers"}]}, {"smiles": "O=CCCCC=O", "note": "[Glutaraldehyde]", "values": [{"measurement": "Rv90", "setting": "MUTZ-3 cells [5]", "value": 10, "unit": "µM"}, {"measurement": "CD86 expression following chemical stimulation", "setting": "[4]", "value": "statistically significant upregulation of CD86"}, {"measurement": "Transcriptional profile in PCA based on GRPS, by mechanistic subdomain", "setting": "MUTZ-3 cells [3]", "value": "groups closely with both acid anhydrides and diisocyanates"}, {"measurement": "Classification of reference chemical as respiratory sensitizer or non-sensitizer", "setting": "[1]; [6]", "value": "respiratory sensitizers"}]}, {"smiles": "CCCCCCCC(=O)O", "note": "[octanoic acid]", "values": [{"measurement": "Position of external test set samples in PCA plot based on the GRPS", "setting": "MUTZ-3 cells [3]", "value": "correctly grouped together with non-sensitizers"}]}, {"smiles": "CC(O)CO", "note": "(centres unmarked) [Propylene glycol]", "values": [{"measurement": "Classification of reference chemical as respiratory sensitizer or non-sensitizer", "setting": "[1]; [6]", "value": "non-sensitizers"}]}, {"smiles": "CCCCCCCC/C=C\\CCCCCCCC(=O)OCCOCC(OCCO)C1OCC(OCCO)C1OCCO", "note": "(centres unmarked) [Tween 80, polyoxyethylene (20) sorbitan monooleate]", "values": [{"measurement": "Classification of reference chemical as respiratory sensitizer or non-sensitizer", "setting": "[1]; [6]", "value": "non-sensitizers"}]}, {"smiles": "O=C1C=CC(=O)O1", "note": "[Maleic Anhydride]", "values": [{"measurement": "Classification of reference chemical as respiratory sensitizer or non-sensitizer", "setting": "[1]", "value": "respiratory sensitizers"}]}, {"smiles": "N.N.O=S(=O)(O)OOS(=O)(=O)O", "note": "[Ammonium persulfate]", "values": [{"measurement": "Transcriptional profile in PCA based on GRPS, by mechanistic subdomain", "setting": "MUTZ-3 cells [3]", "value": "most extreme transcriptional changes"}, {"measurement": "Classification of reference chemical as respiratory sensitizer or non-sensitizer", "setting": "[1]", "value": "respiratory sensitizers"}]}, {"smiles": "COC(=O)c1ccccc1O", "note": "[Methyl salicylate]", "values": [{"measurement": "Classification of reference chemical as respiratory sensitizer or non-sensitizer", "setting": "[1]; [6]", "value": "non-sensitizers"}]}, {"smiles": "OCC(O)CO", "note": "[glycerol]", "values": [{"measurement": "Position of external test set samples in PCA plot based on the GRPS", "setting": "MUTZ-3 cells [3]", "value": "correctly grouped together with non-sensitizers"}]}, {"smiles": "Oc1ccccc1", "note": "[phenol]", "values": [{"measurement": "Position of external test set samples in PCA plot based on the GRPS", "setting": "MUTZ-3 cells [3]; [7]", "value": "correctly grouped together with non-sensitizers"}]}, {"smiles": "Clc1ccccc1", "note": "[Chlorobenzene]", "values": [{"measurement": "Position of external test set samples in PCA plot based on the GRPS", "setting": "MUTZ-3 cells [3]; [7]", "value": "correctly grouped together with non-sensitizers"}, {"measurement": "Classification of reference chemical as respiratory sensitizer or non-sensitizer", "setting": "[1]", "value": "non-sensitizers"}, {"measurement": "Max solubility", "setting": "[2]", "value": 98, "unit": "µM"}]}, {"smiles": "CCCCO", "note": "[1-Butanol]", "values": [{"measurement": "Classification of reference chemical as respiratory sensitizer or non-sensitizer", "setting": "[1]", "value": "non-sensitizers"}]}, {"smiles": "CC(C)O", "note": "[Isopropanol]", "values": [{"measurement": "Classification of reference chemical as respiratory sensitizer or non-sensitizer", "setting": "[1]; [6]", "value": "non-sensitizers"}]}, {"smiles": "O=C(O)c1ccccc1O", "note": "[salicylic acid]", "values": [{"measurement": "Position of external test set samples in PCA plot based on the GRPS", "setting": "MUTZ-3 cells [3]", "value": "correctly grouped together with non-sensitizers"}]}, {"smiles": "O=S(=O)([O-])[O-].[Zn+2]", "note": "[Zinc sulphate]", "values": [{"measurement": "Classification of reference chemical as respiratory sensitizer or non-sensitizer", "setting": "[1]; [6]", "value": "non-sensitizers"}]}]}
